Measured values taken from EP0371733A2, “Dopamine-beta-hydroxylase inhibitors” (SMITHKLINE BEECHAM CORPORATION, priority 1988, dated 1990).

Columns and labels:
DBH [1] = molecular target: T1, DBH (Homo sapiens, UniProt P09172); experiment: in vitro DBH inhibition, conversion of tyramine to octopamine in the presence of DBH; type: biochemical; conditions: concentration at which DBH activity was halved; octopamine assayed by absorbence at 330 nm; read-out: DBH IC₅₀
T1 sequence (P09172 1-617): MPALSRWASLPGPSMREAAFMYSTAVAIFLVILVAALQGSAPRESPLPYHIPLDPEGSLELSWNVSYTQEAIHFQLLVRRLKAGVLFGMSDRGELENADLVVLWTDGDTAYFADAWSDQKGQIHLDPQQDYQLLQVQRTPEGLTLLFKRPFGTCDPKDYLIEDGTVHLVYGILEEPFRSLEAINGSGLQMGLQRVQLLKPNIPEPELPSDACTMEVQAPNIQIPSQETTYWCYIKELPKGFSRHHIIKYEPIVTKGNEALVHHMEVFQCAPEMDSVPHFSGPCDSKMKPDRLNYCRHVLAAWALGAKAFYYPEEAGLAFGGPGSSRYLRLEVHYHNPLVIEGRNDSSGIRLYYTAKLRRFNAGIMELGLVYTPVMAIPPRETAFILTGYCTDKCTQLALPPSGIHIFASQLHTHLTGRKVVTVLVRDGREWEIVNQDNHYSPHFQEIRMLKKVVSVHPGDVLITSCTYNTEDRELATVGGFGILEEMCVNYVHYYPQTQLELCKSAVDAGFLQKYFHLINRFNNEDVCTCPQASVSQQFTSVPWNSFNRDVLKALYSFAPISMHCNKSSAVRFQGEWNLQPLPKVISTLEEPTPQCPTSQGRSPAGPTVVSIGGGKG
Method: Listed in Table I are compounds of the invention that were tested for in vitro DBH inhibition by a standard procedure for assaying conversion of tyramine to octopamine in the presence of DBH. J.J. Pisano, et al., Biochim. Biophys. Acta, 43, 566-568 (1960). Octopamine was assayed following sodium periodate oxidation to p-hydroxybenzaldehyde by measuring spectrophotometric absorbence at 330 nm. In Table I, inhibition is given in molar concentration of compound at which DBH activity was halved (IC₅₀). Fusaric acid, by this test has an IC₅₀ of 8 x 10⁻⁷M.

[2] = test system: spontaneously hypertensive rats; experiment: mean arterial blood pressure in spontaneously hypertensive rats; type: in vivo; conditions: 50 mg/kg intraperitoneally, vs vehicle-treated controls
Method: Further, spontaneously hypertensive rats were treated with 3-(3-fluorophenylmethyl)-2-thiazolidinethione at a dose of 50 mg/kg intraperitoneally, and mean arterial blood pressure was monitored for 250 minutes using indwelling cannulae in the tail arteries. […] The maximal blood pressure reduction was approximately 20 mmHg.

[3] = in vitro screen; Weiffen et al., 1967; cited from earlier work
[4] = Teresawa et al., 1971; cited from earlier work
DBH [5] = molecular target: T1, DBH; conditions: Runti et al., 1980; cited from earlier work

Compound	IC50 (DBH [1])	tuberculostatic activity [3]	other results
Fc1cc(F)cc(CN2CCSC2=S)c1 [3-(3,5-Difluorophenylmethyl)-2-thiazolidinethione]	13 ± 1 µM		
Fc1cccc(CN2CCSC2=S)c1 [3-(3-Fluorophenylmethyl)-2-thiazolidinethione]	30 ± 3 µM		maximal blood pressure reduction ([2]; mean arterial blood pressure monitored for 250 minutes): approximately 20 mmHg; time to significant blood pressure reductions following treatment [2]: ≤ 30 min
S=C1SCCN1Cc1ccccc1 [3-Phenylmethyl-2-thiazolidinethione]	72 ± 13 µM	poor activity	
S=C1SCCN1CCc1ccccc1 [3-phenethylthiazolidinethione, reference compound]		poor activity	
CCCCc1ccc(C(=O)O)nc1 [Fusaric acid]			toxic effects [4]: hepatotoxic
phenylpicolinic acid			inhibitory activity relative to fusaric acid (DBH [5]): twice the inhibitory activity of fusaric acid
